Assay results published in patent US20240417798A1, “THERAPY SELECTION AND TREATMENT OF NEURODEGENERATIVE DISORDERS” (Anavex Life Sciences Corp., priority 2021, published 2024).

Tests used:
[1] = system: patients with Parkinson's Disease Dementia (PDD); experiment: Phase 2 ANAVEX2-73-PDD-001 study, randomized, double blind, placebo-controlled, oral capsules once daily for 14 weeks; format: in vivo, human
Experimental: In order to assess the safety, tolerability and efficacy of ANAVEX®2-73 (blarcamesine) oral capsules in treating cognitive impairment in patients with Parkinson's Disease with Dementia (PDD), a phase 2 study, coded “ANAVEX®2-73-PDD-001 study” (FIG. 1), was conducted. The study was multi-center, randomized, double blind, placebo-controlled, parallel group with 3-arm. The study included a 2-week Screening/Baseline Observation Period and a 14-week Treatment Period (including a 2 week Titration Period), and a 2-week Safety Follow-Up Period. A total of 132 patients were enrolled in the study and were randomly assigned to three testing arms (FIG. 1). In ANAVEX2-73 High Dose arm, 44 patients were given oral capsules of ANAVEX2-73 once daily in an escalating dose of 10 mg, 20 mg, 30 mg and 50 mg. In ANAVEX2-73 Mid Dose arm, 44 patients were given oral capsules of ANAVEX2-73 once daily in an escalating dose of 10 mg, 20 mg, and 30 mg. In placebo group, 44 patients were given placebo capsules. Outcome measures included Cognitive Drug Research (CDR) Computerized Assessment System on Continuity of Attention; Change from Baseline to End of Treatment in Continuity of Attention as measured by Cognitive Drug Research (CDR) Computerized Assessment System Continuity of Attention; Number of participants with treatment-related adverse events as assessed by CTCAE v4.0 [Time Frame: 14 weeks]; Assessment of the safety and tolerability of ANAVEX2-73 compared to placebo; MDS-UPDRS Part III Total Score (Motor Scores); Change from baseline to End of Treatment as measured by MDS-UPDRS Part III Total Score (Motor Scores); SDS-CL-25 [Time Frame: 14 weeks]; Incidence of sleep disorders symptoms (SDS-CL-25); and DNA/RNA Sequencing.
The trial enrolled 132 adults, ages 50-85, with PDD, and was successfully concluded in September 2020. Participants, recruited at multiple sites in Spain and Australia, were randomly assigned to one of two doses groups (with an escalating ANAVEX 2-73 dose up to 30 or 50 mg oral capsules) or to a placebo, once daily for 14 weeks (see FIG. 1 for details). The trial's main goals were to assess the therapy's safety and changes in patients' cognitive function, measured using the cognitive drug research computerized assessment system—a test that looks at multiple cognitive skills, such as choice reaction time (choosing between similar objects), vigilance, and episodic memory (remembering new personal experiences or shared information). Secondary goals included changes in patients' motor abilities—assessed with the Movement Disorders Society Unified Parkinson's Disease Rating Scale (MDS-UPDRS) Part III—and sleep quality. […] This sleep disorder is associated with greater cognitive impairment and a higher risk of dementia. […]

[2] = system: gene clusters (Cluster 1, Cluster 2) of neurodegenerative pathways; experiment: Whole Blood Transcriptomics Analysis (RNAseq) of PDD patients, baseline vs Week 14, WGCNA gene clusters and pathway analysis; format: in vivo, human
Experimental: In order to gain insights into ANAVEX 2-73 response pathways, during the Phase 2 study, patients' DNA and RNA sequencing were analyzed. Transcriptomic samples of 65 patients enrolled in either High Dose or Mid Dose arms were collected at baseline and at the end of treatment (Week 14). The expression of 14,150 genes was measured. No transformation was applied to the TPM values. Values associated with a with RIN≤4.0 were discarded. The actual dose of ANAVEX 2-73 (blarcamesine) that was given to each patient during the trial was assessed and integrated into the database. […]
The genes were clustered together using WGCNA, starting from their correlation of TPM expression values across samples. […] For each cluster, the contrast ActualDose, i.e. treated vs placebo were evaluated across all timepoints. […] The ratio between cluster size and number of pathways was calculated, and top 2 clusters were retained for further Analysis. […] Known interactions between the genes of the cluster were assessed using STRING database with the parameters of Edge score >0.150, and no text mining edges. […]
Whole Blood Transcriptomics Analysis (RNAseq) of patients with Parkinson's disease dementia (PDD) was performed for the ANAVEX®2-73-PDD-001 study (FIG. 1) at two timepoints: Baseline and Week 14 (end of trial). All available RNA samples with […] (RNA integrity number, using 130 samples) were analyzed. […]

SIGMAR1 = SIGMAR1 levels in patients of the PDD-001 trial; format: in vivo, human; settings: use by PDD patients; rise associated with improved attention measures and reduced MDS-UPDRS total and Part III
Experimental: The trial enrolled 132 adults, ages 50-85, with PDD, and was successfully concluded in September 2020. Participants, recruited at multiple sites in Spain and Australia, were randomly assigned to one of two doses groups (with an escalating ANAVEX 2-73 dose up to 30 or 50 mg oral capsules) or to a placebo, once daily for 14 weeks (see FIG. 1 for details). The trial's main goals were to assess the therapy's safety and changes in patients' cognitive function, measured using the cognitive drug research computerized assessment system—a test that looks at multiple cognitive skills, such as choice reaction time (choosing between similar objects), vigilance, and episodic memory (remembering new personal experiences or shared information). Secondary goals included changes in patients' motor abilities—assessed with the Movement Disorders Society Unified Parkinson's Disease Rating Scale (MDS-UPDRS) Part III—and sleep quality. […] This sleep disorder is associated with greater cognitive impairment and a higher risk of dementia. […] After 14 weeks, the MDS-UPDRS total score dropped by 10.98 points (indicating an easing in disease severity) in the high-dose group and rose by 3.53 points in the placebo group. This represented an adjusted mean improvement of 14.51 points—surpassing the established, clinically meaningful 7.1 point-cut-off—and a relative improvement of 18.9% over 14 weeks. […]

[3] = system: patients with Parkinson's Disease Dementia (PDD); settings: previously reported results; cited from earlier work
[4] = biological target: T1, Sigma-1 receptor (SIGMAR1) (Homo sapiens, UniProt Q99720); settings: quantitative PET scan; cited from earlier work
T1 construct: host or cells: in vivo PET scan
T1 sequence (Q99720 whole entry, species assumed): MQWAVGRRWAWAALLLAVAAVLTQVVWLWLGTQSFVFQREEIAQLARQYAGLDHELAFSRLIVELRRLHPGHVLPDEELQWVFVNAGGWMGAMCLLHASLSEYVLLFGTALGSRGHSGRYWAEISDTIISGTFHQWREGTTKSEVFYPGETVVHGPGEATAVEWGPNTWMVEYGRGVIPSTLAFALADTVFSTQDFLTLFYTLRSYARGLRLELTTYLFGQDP

In the case of `CN(C)CC1CCOC1(c1ccccc1)c1ccccc1.Cl` (centres unmarked) [ANAVEX 2-73, tetrahydro-N, N-dimethyl-2,2-diphenyl-3-furanmethanamine hydrochloride], the “Cognitive and sleep benefits, current trial data” value ([1]; data obtained from the current trial) is reported as “confirmed these cognitive and sleep benefits”, the “MDS-UPDRS total score, adjusted mean improvement vs placebo” value ([1]; high dose (50 mg), 14 weeks, clinically meaningful cut-off 7.1 points) is reported as 14.51 points and the “MDS-UPDRS total score, relative improvement” value ([1]; high dose (50 mg), over 14 weeks) is reported as 18.9%. The “MDS-UPDRS total score, drop from baseline (easing in disease severity)” value ([1]; high-dose group (50 mg), after 14 weeks) was 10.98 points, the “Expression of both identified gene clusters, treated patients compared to placebo” value ([2]; after 14 weeks of treatment) was “up-regulated” and the “Dysregulations of Cluster 1 and Cluster 2, link to dose” value ([2]; linear mixed effect model, Dunnett's test) was “significantly linked to the highest dose”. The SIGMAR1 levels (SIGMAR1) was “significant increase in SIGMAR1 levels”, the Cognitive skills [3] was “significantly improved several cognitive skills” and the “REM sleep behavior disorder” value [3] was “lessened REM sleep behavior disorder”. The Safety [3] was “generally safe” and the “Direct occupancy at SIGMAR1” value [4] was “has been established”.
